{"source": "patent US20060088886A1", "about": "“Topiramate analogs” (priority 2004, published 2006)", "key": {"[1]": {"system": "anti-topiramate antibodies prepared with immunogen (17)", "test": "ELISA binding inhibition study (avidity), free topiramate vs coated antigens", "design": "species or system Rabbit", "conditions": "for Abs Antigen 16 / Abs Antigen 19 / Abs Antigen 20: 405 nm", "procedure": "ELISA plates for use in an ELISA assay are prepared in order to study the polyclonal antibody prepared as described in Example 21. As such, various topiramate antigens (16), (19), and (20) are coated on different ELISA plates before being subjected to the anti-topiramate antibody and competing free topiramate. More particularly, the topiramate antigens are diluted in coating buffer, and then added to the wells of ELISA plate. After the ELISA plate is inculcated for 60 min at 37° C., the solvent in the coating buffer is decanted and a blocking buffer is added to the plate. The plate is incubated again for 60 min at 37° C., and the solvent in the blocking buffer is decanted from the plate. The ELISA plate is then stored with the blocking agent in the wells at 2-8° C. for up to 1 week. The avidity of the anti-topiramate antibodies prepared with immunogen (17) for topirainate analogs are determined by a binding inhibition study. As such, samples are prepared in 1 mL of PBS at pH 7.4 with 0.1% BSA. A composition having 30% Bmax titer or 50% Bmax titer is used to divide the obtained titer value into approximately half the titer value. Using 30% Bmax, an antibody titer of 1:10000 is diluted to 1:5000 during the sample preparation stage. About 50 μL of topiramate at different concentrations or calibrator values, (0, 2, 4, 8, 16, 32 μg/ml) are then applied to a plate as prepared in accordance with Example 22. About 50 μL of the diluted antibody is dispensed into the plate, and the compositions in the plate are mixed for 1 min on a horizontal plate shaker. The plate is characterized by a first row not containing topiramate or anti-topiramate antibody, wherein the first row is used as a negative control. A second row not containing topiramate is used as the positive control. The plate is incubated for 60 min, and washed three times with 250 μL of PBS at pH 7.4 with 0.05% tween. About 125 μL of a diluted second antibody conjugate such as antigens (16), (19), or (20), in PBS at pH 7.4 is added to each well of the plate. Titer is determined experimentally by the plate being incubated for 60 min at 37° C. and washed 3 times with 250 μL PBS, pH 7.4 with 0.05% tween. Subsequently, about 125 μL of ABTS substrate is added to each well of the plate and incubated for 20 min."}, "[2]": {"system": "sheep polyclonal antibodies that bind with topiramate prepared from immunogen (18)", "test": "QMS homogeneous particle-enhanced immunoturbidimetric assay", "assay_type": "binding", "conditions": "Polyclonal antibody R1, Topiramate antigen (19) coated Latex", "procedure": "An immunoturbidimetric or QMS® assay, which is a homogeneous particle-enhanced immunoturbidimetric experiment, is performed to test the polyclonal antibodies prepared as in Example 21. […] Additionally, suitable specimens can be prepared from serum and plasma. Serum can be collected by standard venipuncture techniques and placed into glass or plastic tubes with or without gel barriers. […] In the instance the specimen is centrifuged before a complete clot forms, the presence of fibrin may cause erroneous results. Accordingly, the serum can be separated from red blood cells as soon after collection as possible. Plasma can also be used with acceptable anticoagulants, such as lithium heparin, sodium heparin, potassium EDTA, and a heparin gel plasma separator. The plasma can be collected by standard venipuncture techniques and placed into glass or plastic tubes. Also, centrifugation is used to ensure the adequate removal of platelets. The plasma can be separated from red blood cells as soon as possible after collection. The specimens that contain particulate matter or red blood cells may give inconsistent results, but can be centrifuged before testing at a recommended 8,000 to 10,000 RCF×10 minutes to produce a suitable specimen. The assay procedure is initiated by diluting the specimen because the specimens with topiramate can be used to generate results that exceed the highest calibrator value. As such, the specimens may be diluted manually or by using an automated onboard dilution protocol. The assay is based on competition for topiramate-specific antibody binding sites between drug in the sample and drug coated onto a microparticle of topiramate-coated microparticle reagent is rapidly agglutinated in the presence of the anti-topiramate antibody reagent and in the absence of any competing drug in the sample. The rate of absorbance change is measured photometrically, and is directly proportional to the rate of agglutination of the particles. […] A concentration-dependent classic agglutination inhibition curve can be obtained, with maximum rate of agglutination at the lowest topiramate concentration (at zero μg/ml) and the lowest agglutination rate at the highest topiramate concentration (32 μg/ml). The QMS® topiramate assay is initiated after the being calibrated using a full calibration (6-point) procedure. The QMS® is performed as directed in operation manuals in accordance with the average skill of one in the art."}, "[3]": {"conditions": "Rabbit No. 5481, topiramate 2 μg/ml"}, "[4]": {"conditions": "Rabbit No. 5481, topiramate 4 μg/ml"}, "[5]": {"conditions": "Rabbit No. 5481, topiramate 8 μg/ml"}, "[6]": {"conditions": "Rabbit No. 5481, topiramate 16 μg/ml"}, "[7]": {"conditions": "Rabbit No. 5481, topiramate 32 μg/ml"}, "[8]": {"conditions": "Rabbit No. 5492, topiramate 2 μg/ml"}, "[9]": {"conditions": "Rabbit No. 5492, topiramate 4 μg/ml"}, "[10]": {"conditions": "Rabbit No. 5492, topiramate 8 μg/ml"}, "[11]": {"conditions": "Rabbit No. 5492, topiramate 16 μg/ml"}, "[12]": {"conditions": "Rabbit No. 5492, topiramate 32 μg/ml"}}}
{"smiles": "CC1(C)O[C@@H]2[C@@H](CO[C@@]3(COS(N)(=O)=O)OC(C)(C)O[C@@H]23)O1", "note": "[Topiramate, 2,3:4,5-di-O-isopropylidene-beta-D-fructopyranose sulfamate]", "values": [{"measurement": "B/Bo Antigen 16", "setting": "[1]; [3]", "value": 0.38}, {"measurement": "B/Bo Antigen 19", "setting": "[1]; [3]", "value": 0.40}, {"measurement": "B/Bo Antigen 20", "setting": "[1]; [3]", "value": 0.53}, {"measurement": "Abs Antigen 16", "setting": "[1]; [3]", "value": 0.29}, {"measurement": "Abs Antigen 19", "setting": "[1]; [3]", "value": 0.33}, {"measurement": "Abs Antigen 20", "setting": "[1]; [3]", "value": 0.32}, {"measurement": "B/Bo Antigen 16", "setting": "[1]; [4]", "value": 0.34}, {"measurement": "B/Bo Antigen 19", "setting": "[1]; [4]", "value": 0.30}, {"measurement": "B/Bo Antigen 20", "setting": "[1]; [4]", "value": 0.50}, {"measurement": "Abs Antigen 16", "setting": "[1]; [4]", "value": 0.26}, {"measurement": "Abs Antigen 19", "setting": "[1]; [4]", "value": 0.25}, {"measurement": "Abs Antigen 20", "setting": "[1]; [4]", "value": 0.30}, {"measurement": "B/Bo Antigen 16", "setting": "[1]; [5]", "value": 0.24}, {"measurement": "B/Bo Antigen 19", "setting": "[1]; [5]", "value": 0.24}, {"measurement": "B/Bo Antigen 20", "setting": "[1]; [5]", "value": 0.42}, {"measurement": "Abs Antigen 16", "setting": "[1]; [5]", "value": 0.18}, {"measurement": "Abs Antigen 19", "setting": "[1]; [5]", "value": 0.20}, {"measurement": "Abs Antigen 20", "setting": "[1]; [5]", "value": 0.25}, {"measurement": "B/Bo Antigen 16", "setting": "[1]; [6]", "value": 0.20}, {"measurement": "B/Bo Antigen 19", "setting": "[1]; [6]", "value": 0.22}, {"measurement": "B/Bo Antigen 20", "setting": "[1]; [6]", "value": 0.37}, {"measurement": "Abs Antigen 16", "setting": "[1]; [6]", "value": 0.15}, {"measurement": "Abs Antigen 19", "setting": "[1]; [6]", "value": 0.18}, {"measurement": "Abs Antigen 20", "setting": "[1]; [6]", "value": 0.22}, {"measurement": "B/Bo Antigen 16", "setting": "[1]; [7]", "value": 0.14}, {"measurement": "B/Bo Antigen 19", "setting": "[1]; [7]", "value": 0.18}, {"measurement": "B/Bo Antigen 20", "setting": "[1]; [7]", "value": 0.30}, {"measurement": "Abs Antigen 16", "setting": "[1]; [7]", "value": 0.11}, {"measurement": "Abs Antigen 19", "setting": "[1]; [7]", "value": 0.15}, {"measurement": "Abs Antigen 20", "setting": "[1]; [7]", "value": 0.18}, {"measurement": "B/Bo Antigen 16", "setting": "[1]; [8]", "value": 0.56}, {"measurement": "B/Bo Antigen 19", "setting": "[1]; [8]", "value": 0.38}, {"measurement": "B/Bo Antigen 20", "setting": "[1]; [8]", "value": 0.64}, {"measurement": "Abs Antigen 16", "setting": "[1]; [8]", "value": 0.25}, {"measurement": "Abs Antigen 19", "setting": "[1]; [8]", "value": 0.31}, {"measurement": "Abs Antigen 20", "setting": "[1]; [8]", "value": 0.45}, {"measurement": "B/Bo Antigen 16", "setting": "[1]; [9]", "value": 0.44}, {"measurement": "B/Bo Antigen 19", "setting": "[1]; [9]", "value": 0.28}, {"measurement": "B/Bo Antigen 20", "setting": "[1]; [9]", "value": 0.59}, {"measurement": "Abs Antigen 16", "setting": "[1]; [9]", "value": 0.20}, {"measurement": "Abs Antigen 19", "setting": "[1]; [9]", "value": 0.23}, {"measurement": "Abs Antigen 20", "setting": "[1]; [9]", "value": 0.41}, {"measurement": "B/Bo Antigen 16", "setting": "[1]; [10]", "value": 0.33}, {"measurement": "B/Bo Antigen 19", "setting": "[1]; [10]", "value": 0.23}, {"measurement": "B/Bo Antigen 20", "setting": "[1]; [10]", "value": 0.54}, {"measurement": "Abs Antigen 16", "setting": "[1]; [10]", "value": 0.15}, {"measurement": "Abs Antigen 19", "setting": "[1]; [10]", "value": 0.19}, {"measurement": "Abs Antigen 20", "setting": "[1]; [10]", "value": 0.38}, {"measurement": "B/Bo Antigen 16", "setting": "[1]; [11]", "value": 0.29}, {"measurement": "B/Bo Antigen 19", "setting": "[1]; [11]", "value": 0.20}, {"measurement": "B/Bo Antigen 20", "setting": "[1]; [11]", "value": 0.54}, {"measurement": "Abs Antigen 16", "setting": "[1]; [11]", "value": 0.13}, {"measurement": "Abs Antigen 19", "setting": "[1]; [11]", "value": 0.17}, {"measurement": "Abs Antigen 20", "setting": "[1]; [11]", "value": 0.38}, {"measurement": "B/Bo Antigen 16", "setting": "[1]; [12]", "value": 0.02}, {"measurement": "B/Bo Antigen 19", "setting": "[1]; [12]", "value": 0.18}, {"measurement": "B/Bo Antigen 20", "setting": "[1]; [12]", "value": 0.40}, {"measurement": "Abs Antigen 16", "setting": "[1]; [12]", "value": 0.01}, {"measurement": "Abs Antigen 19", "setting": "[1]; [12]", "value": 0.15}, {"measurement": "Abs Antigen 20", "setting": "[1]; [12]", "value": 0.28}, {"measurement": "Rate (Delta Absorbance)", "setting": "[2]; topiramate 2 μg/ml sample", "value": 159}, {"measurement": "Rate (Delta Absorbance)", "setting": "[2]; topiramate 4 μg/ml sample", "value": 122}, {"measurement": "Rate (Delta Absorbance)", "setting": "[2]; topiramate 8 μg/ml sample", "value": 60}, {"measurement": "Rate (Delta Absorbance)", "setting": "[2]; topiramate 16 μg/ml sample", "value": 16}, {"measurement": "Rate (Delta Absorbance)", "setting": "[2]; topiramate 32 μg/ml sample", "value": 4}]}
